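96-well plates; 48 h exposure; 5 concentrations. Endpoints by linear interpolation between flanking doses. Not reached: highest tested concentration assigned. Here, GI50 denotes the concentration required for 50% inhibition of growth. The concentration for full growth arrest is given as TGI.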
The compounds below were run on MDA-MB-468 breast (assay: growth of human tumour cells (NCI), 48 h).

Structure (SMILES) | GI50 [nM] | TGI [nM]
C#CCNC(=O)c1cccc2c1cc(C)n2-c1nc2c(c(NCc3ccccc3)n1)CCCC2 | 21.3 | 54.6
COc1cc[nH]c1/C=C1\C(=O)Nc2ccc(F)c(C#CC3(O)CCNCC3)c21 | 123 | 600
CC/C=C\C[C@H](F)C/C=C1/C(=O)C=C[C@@H]1C/C=C\CCCC(=O)O | 3850 | 11500
Nc1nc2c(nnn2C2CC(O)C(CO)O2)c(=O)[nH]1 (centres undefined) | 825 | 7200
O=C(O)CCNC1CCCCC1 | > 100000 | > 100000
CCOCC(=O)N[C@H]1CCc2cc(OC)c(OC)c(OC)c2-c2ccc(OC)c(=O)cc21 | < 10 | > 100000
COC(=O)Nc1nc2ccc(Oc3ccc(NC(=O)Nc4cc(C(F)(F)F)ccc4F)cc3)cc2s1 | 9110 | > 25000
C=C(C[C@](O)(C(=O)/C=C/c1ccc(Cl)cc1)C(=O)OC)c1ccccc1 | 3760 | 13700
CC/C=C\C[C@@H](O)C/C=C1/C(=O)C=C[C@H]1C/C=C\CCCC(=O)OC | 2120 | 4790
COc1cc2ncn(-c3cc(OCc4cccs4)c(C(N)=O)s3)c2cc1OC | 654 | 6410
NC(=O)NS(=O)(=O)c1ccc(N2N=C(C(F)(F)F)CC2c2cc(C(F)(F)F)cc(C(F)(F)F)c2)cc1 (centres undefined) | 2700 | 10900
CCCC(=O)OCC1OC(n2cnc3c(=S)nc[nH]c32)C(OC(=O)CCC)C1OC(=O)CCC (centres undefined) | 802 | 45000
O=C1Nc2ccccc2C1(c1ccc(O)cc1)c1ccc(O)cc1 | 227 | 14100
CS(=O)(=O)CCNCc1ccc(-c2ccc3ncnc(Nc4ccc(OCc5ccccc5)cc4)c3c2)o1 | 146 | 1620
CC(C)(O)c1cncc(-c2ccc3ncnc(N4CCc5cc(F)c(Cl)cc54)c3c2)c1 | 567 | 3500
CCCn1c(=S)sc2c1nc(C)n1c(Nc3ccccc3)nnc21 | 2030 | 13000
COc1ccc(-c2nc(-c3nc4ccc(Cl)cc4[nH]3)c3ccccn23)cc1 | 1990 | 6760
CN(C)CCCOc1ccc(C(=C(c2ccccc2)C2CCCC2)c2ccc(OCCCN(C)C)cc2)cc1 | 1710 | 3970
Cc1ccc2c(c1)Sc1c(ccc3ccccc13)N2 | 56200 | > 100000
CCCCCCCC[C@@H](O)CC(=O)N[C@@H](CC(N)=O)C(=O)N[C@@H](CCC(N)=O)C(=O)N[C@@H](CC(=O)c1cc(C)cc(O)c1C(=O)c1c(O)cccc1O)CC(C)C | 401 | 3140
Nc1nc(N(Cc2ccccc2)c2ccccc2)c2cn[nH]c2n1 | 1960 | 6330

Structure (SMILES) | GI50 [nM] | TGI [nM]
Cc1cc(-c2cnn3c(NCC4CC(C)(O)C4)cc(Oc4cccnc4)nc23)ccc1C(=O)NC1CC1 (centres undefined) | 2080 | > 100000
COc1ccc(-c2onc(N)c2-c2cc(OC)c3c(c2)OCO3)cc1 | 644 | 3150
CCCCCCCCn1ccc2cc(NC(=O)Cn3cc(CN4CCCC4)nn3)ccc21 | 1630 | 3170
Cc1ccc(C(=O)NC(C)C)cc1-c1ccc(C(=O)NCC2CC2)cc1 | > 25000 | > 25000
O=C(Nc1ccc(-c2nc(N3CCOCC3)c3cccn3n2)cc1)Nc1cccnc1 | 69.2 | 570
CC1(C)OC2=C(CC1Br)C(=O)C(=O)c1ccccc12 (centres undefined) | 1450 | 2820
COc1cc2cc(Oc3ccc(NC(=O)Nc4ccc(Cl)c(C(F)(F)F)c4)cc3)c(C)nc2cc1OCCN1CCOCC1 | 474 | 2060
C#C[C@]1(O)CC[C@H]2[C@@H]3CC=C4c5sc(Nc6ncccc6C)nc5CC[C@]4(C)[C@H]3CC[C@@]21C | 1250 | 3230
O=C1C(Cl)=C(NCCN2CCOCC2)C(=O)c2ncccc21 | 1410 | 2910
C[N+]1=C(/C=C/c2ccc(O)c3ncccc23)C(C)(C)c2ccccc21 | 3050 | 10600
COc1ccc2c(c1)CCCN2c1c2ccccc2nc2ccccc12 | 386 | > 100000
COc1ccc(-c2cnc(NC(=O)CCCCCCNC(=O)C(O)(O)C(F)(F)F)s2)cc1 | 877 | 5560
O=C(CCc1nnc2sc(-c3ccc(Cl)cc3Cl)nn12)c1nc2ccccc2[nH]1 | 466 | 1490
O=C(Nc1ccncc1)C(=O)c1cn(S(=O)(=O)c2cccc(F)c2)c2ccccc12 | 1260 | 8380
Nc1nccc(-c2c(-c3ccc(F)cc3)ncn2C2CCC(O)CC2)n1 (centres undefined) | 822 | 6360
CCN(CC)CCCC(C)Nc1c2ccc(Cl)cc2nc2ccc(O)cc12 (centres undefined) | 1310 | 2910
COc1ccc(CNS(=O)(=O)/N=C2\NC(=O)NC2=C(Cl)Cl)cc1 | 180 | 650
Cc1ccc(-c2nc3nc(-c4ccccc4)nc(N4CCCNCC4)c3o2)cc1 | 1590 | 3350
CNC(=O)c1cc(-c2ccc(NC(=O)Nc3ccc(N4CCN(C)CC4)c(C(F)(F)F)c3)cc2)nc2cccnc12 | 14800 | 32900
Cc1ccc(C(=O)N(CCCN)C(c2oc3cc(Cl)ccc3c(=O)c2Cc2ccccc2)C(C)C)cc1 (centres undefined) | < 10 | 904
O=C(O)/C=C(\c1nc2ccc([N+](=O)[O-])cc2[nH]1)c1cc(Cl)ccc1O | 2090 | 9960
